Experimental data taken from patent publication US6214821A, “Methods and composition for the inhibition of cancer cells” (Washington State University Research Foundation, priority 1999, dated 2001).
Read-outs that look alike come from different tables or passages of the source.

Legend:
GI 101A cells = assay: cells; format: cell-based, human
Excerpt: (§1) . Cell lines and Culture.
(§2) Drugs and Chemical Reagents. […] . […] All other chemicals were reagent grade.
(§3) Drug Treatment and Survival Curves.
(§4) Pharmacol. 28:370-376 (1991). […] .
(§5) Drug Combinations and Data Analysis. […] . Pharmacol. (in press, 1997). […] Enzyme Regul. […] Enzyme Regul. 22:27-55 (1984).
(§6) . […] Enzyme Regul. 22:27-55 (1984).

MDA-231 cells = assay: cells; format: cell-based, human
Excerpt: as §1, §2, §3, §4, §5, §6

HMEC/E6 (p53-) = assay: Crystal violet staining growth inhibition assay, median effect analysis; format: cell-based; settings: Homo sapiens, 24 hr treatment
Excerpt: Cytotoxicity and Bromodeoxyuridine incorporation assays. […] Enzyme Regul.

[1] = UCN-01 pharmacokinetics in rats, effect of human AGP; format: in vivo, male Wistar rats; settings: for half-life / clearance / Vd: 10 mg/kg; for half-life: range over the two groups (without and with 10 mg human AGP); for clearance: read-out: total body clearance (converted); for Vd: read-out: volume of distribution during the elimination phase
Excerpt: Many basic drugs tend to bind in variable degrees to AGP (Knowlton, K. et al., "Bcl-2 slows in vitro breast cancer growth despite its antiapoptotic effect," J. Surg. Res. 76:22-26 (1998)). […] Thus monitoring changes in the pharmacokinetic drug concentrations in these pathological conditions is extremely important, since dosage adjustment would be considered. For our drug combination, this binding is of a crucial consequence since the attainable plasma and tumor concentrations may be questionable and plasma protein displacement interaction may occur and can lead to undesirable side effects. Thus the role of human α1 -acid glycoprotein (AGP) binding on UCN-01 disposition was determined. In this example, two groups of rats were prepared by cannulating the femoral vein and artery. The first group (n=6) received UCN-01 (10 mg/kg i.v.) by slow infusion over 1 min., while the second group (n=5) received UCN-01+10 mg human α1 -acid glycoprotein. Plasma samples were obtained over time (0-700 min), and were analyzed for UCN-01 by HPLC system (Shimazdu LC), detecting peaks using fluorescence detector (excitation=310 nm, emission=410).

[2] = Tissue distribution of UCN-01 in rats, effect of human AGP; format: in vivo, male Wistar rats; settings: rat, iv, 10 mg/kg
Description: The role of human AGP binding on the tissue distribution of UCN-01. In this study, two groups of rats (n=3) were infused with bolus injection of either UCN-01 (10 mg/kg) or UCN-01+ human AGP (10 mg/kg +10 mg). On hour following drug administration, plasma samples as well as organ tissues (brain, muscle, kidneys, lungs, liver, heart and spleen) were collected. Tissues were digested and homogenized, protein was precipitated with cold ethanol/1% ascorbic acid, and the supernatant was extracted with chloroform. The organic phase was then dried under nitrogen, reconstituted in acetonitrile and analyzed by HPLC as mentioned above.

[3] = test system: normal bovine venular endothelial cells (BVEC)
Description: Cell lines and Culture. […] Normal bovine venular endothelial cells (BVEC) were maintained in DMEM media (Gibco) supplemented with 1 mM sodium pyrovate (Gibco), and 20% bovine calf serum (Hyclone). Cell viability was determined using the trypan blue exclusion test. To ensure an exponential growth, cells were plated in fresh medium 24 h before each treatment.
Drug Treatment and Survival Curves. Cytotoxicity studies were initiated by plating 2×10^4 cells obtained from exponentially growing cultures in 24-well tissue culture plates (Coming-Costar, Cambridge Mass.) in the appropriate medium. Following 24 h incubation at 37° C., drugs were added to quadruplicate wells and incubated for 24 h, the wells were washed twice with prewarmed phosphate-buffered saline (PBS) and then incubated with drug-free medium for 2-3 doubling times.

[4] = 72- or 3-h infusion, NCI Phase I; cited from earlier work
[5] = test system: α1 -acid glycoprotein (AGP); settings: cited from earlier work
[6] = Death of animals injected with UCN-01; settings: i.m., doses higher than 5 mg/kg
HMEC (p53+) = assay: Crystal violet staining growth inhibition assay, median effect analysis; settings: Homo sapiens, 24 h, read-out: IC50 HMEC (p53+)
MDA-231 (mutant p53) = assay: as above; settings: Homo sapiens, MDA-MB-231, 24 h, read-out: IC50 MDA-231 (p53-)
[7] = rat, plasma, iv, UCN-01 10 mg/kg i.v. + 10 mg human AGP
[8] = rat, plasma, iv, UCN-01 10 mg/kg i.v. alone

SMILES: CN[C@@H]1C[C@H]2O[C@@](C)([C@@H]1OC)n1c3ccccc3c3c4c(c5c6ccccc6n2c5c31)C(=O)N[C@@H]4O [UCN-01, 7-hydroxystaurosporine]
- enhancement of CPT cytotoxicity (GI 101A cells): about 30 fold
- enhancement of CPT cytotoxicity (MDA-231 cells): ~40 fold
- IC50 (HMEC/E6 (p53-)): 1.4 nM
- duration of peak plasma concentration >100 nM ([1]; 10 mg/kg i.v., presence of human AGP): up to 300 min
- half-life ([1]; rat, plasma, iv, 10 mg/kg i.v., read-out: t1/2α): 0.183 to 0.85 h
- half-life ([1]; rat, plasma, iv, 10 mg/kg i.v., read-out: t1/2β): 6.65 to 6.95 h
- clearance [1, 7]: 1.5 mL/min
- Vd [1, 7]: 1.7 L/kg
- clearance [1, 8]: 4.33 mL/min
- Vd [1, 8]: 6.8 L/kg
- Cmax ([1]; rat, plasma, iv, 10 mg/kg i.v., presence of human AGP, read-out: peak plasma concentration): > 0.1 µM
- Kp at 1 h ([2]; all tissues, UCN-01, 1 h, read-out: tissue:plasma ratios, all tissues): 10 to 1190
- concentration at 1 h ([2]; brain, brain, UCN-01 10 mg/kg alone, 1 h, read-out: tissue concentration): 2450 ± 495 ng/g
- Kp at 1 h ([2]; brain, brain, UCN-01 + human AGP, 1 h, read-out: Tissue/Plasma ratio): 0.6 ± 0.33
- concentration at 1 h ([2]; brain, brain, UCN-01 + human AGP, 1 h, read-out: tissue concentration): 1720 ± 78.4 ng/g
- Kp at 1 h ([2]; brain, brain, UCN-01 alone, 1 h, read-out: Tissue/Plasma ratio): 10.5 ± 1.9
- concentration at 1 h ([2]; heart, heart, UCN-01 10 mg/kg alone, 1 h, read-out: tissue concentration): 19900 ± 9940 ng/g
- Kp at 1 h ([2]; heart, heart, UCN-01 + human AGP, 1 h, read-out: Tissue/Plasma ratio): 3.5 ± 1.7
- concentration at 1 h ([2]; heart, heart, UCN-01 + human AGP, 1 h, read-out: tissue concentration): 10100 ± 4900 ng/g
- Kp at 1 h ([2]; heart, heart, UCN-01 alone, 1 h, read-out: Tissue/Plasma ratio): 86.8 ± 41.7
- concentration at 1 h ([2]; kidney, kidney, UCN-01 10 mg/kg alone, 1 h, read-out: tissue concentration): 73200 ± 3050 ng/g
- Kp at 1 h ([2]; kidney, kidney, UCN-01 + human AGP, 1 h, read-out: Tissue/Plasma ratio): 14 ± 5.6
- concentration at 1 h ([2]; kidney, kidney, UCN-01 + human AGP, 1 h, read-out: tissue concentration): 39400 ± 8510 ng/g
- Kp at 1 h ([2]; kidney, kidney, UCN-01 alone, 1 h, read-out: Tissue/Plasma ratio): 298 ± 40
- concentration at 1 h ([2]; liver, liver, UCN-01 10 mg/kg alone, 1 h, read-out: tissue concentration): 42900 ± 3210 ng/g
- Kp at 1 h ([2]; liver, liver, UCN-01 + human AGP, 1 h, read-out: Tissue/Plasma ratio): 11.3 ± 1.34
- concentration at 1 h ([2]; liver, liver, UCN-01 + human AGP, 1 h, read-out: tissue concentration): 30100 ± 2530 ng/g
- Kp at 1 h ([2]; liver, liver, UCN-01 alone, 1 h, read-out: Tissue/Plasma ratio): 189 ± 131
- concentration at 1 h ([2]; lung, lung, UCN-01 10 mg/kg alone, 1 h, read-out: tissue concentration): 279000 ± 19600 ng/g
- Kp at 1 h ([2]; lung, lung, UCN-01 + human AGP, 1 h, read-out: Tissue/Plasma ratio): 53.6
- concentration at 1 h ([2]; lung, lung, UCN-01 + human AGP, 1 h, read-out: tissue concentration): 141000 ± 12000 ng/g
- Kp at 1 h ([2]; lung, lung, UCN-01 alone, 1 h, read-out: Tissue/Plasma ratio): 1190 ± 775
- concentration at 1 h ([2]; muscle, muscle, UCN-01 10 mg/kg alone, 1 h, read-out: tissue concentration): 11900 ± 783 ng/g
- Kp at 1 h ([2]; muscle, muscle, UCN-01 + human AGP, 1 h, read-out: Tissue/Plasma ratio): 2.27 ± 1.11
- concentration at 1 h ([2]; muscle, muscle, UCN-01 + human AGP, 1 h, read-out: tissue concentration): 6590 ± 3060 ng/g
- Kp at 1 h ([2]; muscle, muscle, UCN-01 alone, 1 h, read-out: Tissue/Plasma ratio): 60 ± 5.48
- concentration at 1 h ([2]; plasma, plasma, UCN-01 10 mg/kg + human AGP 10 mg, 1 h, mean ± SD, n=3, read-out: plasma concentration): 2.96 ± 0.25 µg/mL
- concentration at 1 h ([2]; plasma, plasma, UCN-01 10 mg/kg alone, 1 h, mean ± SD, n=3, read-out: plasma concentration): 0.24 ± 0.035 µg/mL
- concentration at 1 h ([2]; spleen, spleen, UCN-01 10 mg/kg alone, 1 h, read-out: tissue concentration): 74900 ± 5170 ng/g
- Kp at 1 h ([2]; spleen, spleen, UCN-01 + human AGP, 1 h, read-out: Tissue/Plasma ratio): 19.6 ± 14.7
- concentration at 1 h ([2]; spleen, spleen, UCN-01 + human AGP, 1 h, read-out: tissue concentration): 53300 ± 3120 ng/g
- Kp at 1 h ([2]; spleen, spleen, UCN-01 alone, 1 h, read-out: Tissue/Plasma ratio): 326 ± 208
- enhancement of CPT-induced cytotoxicity [3]: no enhancement of CPT-induced cytotoxicity
- distribution volume [4]: small distribution volume
- half-life [4]: long half-life
- plasma concentrations [4]: high plasma concentrations
- systemic clearance [4]: Extremely low systemic clearance
- binding to α1-acid glycoprotein [5]: high affinity binding
- death of animals [6]: Death of animals injected with doses higher than 5 mg/kg was observed
- IC50 (HMEC (p53+)): 0.07 nM
- IC50 (MDA-231 (mutant p53)): 49.6 nM
